Assay results as given in patent US9586907B2, “Isothiocyanate compounds, pharmaceutical compositions, and uses thereof” (priority 2006, dated 2017).
Values after ≈ are worked out from the molar mass of the structure shown. Marks after values point to notes of the source that are not given here.

Columns and labels:
M. bovis BCG = experiment: microbe, parasite or virus in culture; assay type: cell-based
M. scrofulaceum = experiment: MIC, M. scrofulaceum; assay type: cell-based; conditions: M. scrofulaceum
[1] = tested on: Aspergillus fumigatus Rit 11; experiment: Anti-fungal MIC, Aspergillus fumigatus Rit 11; conditions: Aspergillus fumigatus Rit 11
M. avium = experiment: MIC, M. avium; assay type: cell-based; conditions: M. avium
M. tuberculosis 210 = experiment: MIC, M. tuberculosis 210; assay type: cell-based
Method: (§1) Next, several of the bifunctional ITC compounds were tested for their ability to inhibit the growth of some clinical isolates of Mycobacteria, the results of which are summarized in Table 3 below.

M. cansassi = experiment: MIC, M. cansassi; assay type: cell-based; conditions: M. cansassi
[2] = tested on: Candida parapsilosis 22019; experiment: Anti-fungal MIC, Candida parapsilosis 22019; conditions: Candida parapsilosis 22019
M. fortuitum = experiment: MIC, M. fortuitum; assay type: cell-based; conditions: M. fortuitum
M. tuberculosis P = experiment: MIC, M. tuberculosis P; assay type: cell-based
Method: as §1

Candida dlabrata 250^mdr = experiment: Anti-fungal MIC, Candida dlabrata 250^mdr; conditions: Candida dlabrata 250^mdr; MIC determined at 48 hours of growth
[3] = tested on: Mycobacterium tuberculosis H37Rv strain; experiment: In vitro infection model, bacterial growth inhibition in infected macrophages; assay type: cell-based; conditions: M. tuberculosis H37Rv; up to 1 μg/mL; Rifampicin control
Excerpt: Rifampicin was used as a control for this experiment.

M. tuberculosis W = experiment: MIC, M. tuberculosis W; assay type: cell-based
Method: as §1

[4] = In vivo tolerance in mice; conditions: highest dose, 50 mg/kg
M. intracellularie = experiment: MIC, M. intracellularie; assay type: cell-based; conditions: M. intracellularie
[5] = tested on: Aspergillus fumigatus Rit 1; experiment: Anti-fungal MIC, Aspergillus fumigatus Rit 1; conditions: Aspergillus fumigatus Rit 1
M. tuberculosis CDC1551 = experiment: MIC, M. tuberculosis CDC1551; assay type: cell-based
Method: as §1

M. tuberculosis H37Rv = experiment: MIC, M. tuberculosis H37Rv; assay type: cell-based
Method: as §1

M. tuberculosis W4 = experiment: MIC, M. tuberculosis W4; assay type: cell-based
Method: as §1

Candida albicans 90028 = experiment: Anti-fungal MIC, Candida albicans 90028; conditions: Candida albicans 90028
[6] = tested on: human peritoneal macrophages infected with Mycobacterium tuberculosis H37Rv strain; experiment: In vitro infection model, cytotoxicity; conditions: up to 1 μg/mL; Rifampicin control
Mycobacteria = assay type: cell-based; conditions: Table 3
[7] = tested on: Candida albicans 5108^mdr; experiment: Anti-fungal MIC, Candida albicans 5108^mdr; conditions: Candida albicans 5108^mdr
virus (92TH594) = experiment: Viral proliferation in PBMC, p24 viral antigen; assay type: cell-based; conditions: for P24 values: PBMC
[8] = tested on: Cryptococcus neoformans CNH99; experiment: Anti-fungal MIC, Cryptococcus neoformans CNH99; conditions: Cryptococcus neoformans CNH99
[9] = tested on: Aspergillus fumigatus Rit 21; experiment: Anti-fungal MIC, Aspergillus fumigatus Rit 21; conditions: Aspergillus fumigatus Rit 21
Candida albicans 90030 = experiment: Anti-fungal MIC, Candida albicans 90030; conditions: Candida albicans 90030
[10] = tested on: human acute monocytic leukemia cells (THP1 cells); experiment: Growth of THP1 cells, MTT metabolic assay; assay type: cell-based; conditions: highest dosage of 32 μg/mL, 24 hours
Method: THP1 cells were either mock-treated (DMSO vehicle alone), or treated with increasing doses of new compounds 37 and 45, from 0 to 32 μg/mL. Cells were incubated in the presence of compound for 24 hours, and subsequently were assayed for total cell viability using an MTT, metabolic assay.

M. tuberculosis AB = experiment: MIC, M. tuberculosis AB; assay type: cell-based
Method: as §1

## OCCCCCCCCN=C=S [Compound 45, HO—(CH2)8—N═C═S]
M. bovis BCG
  MIC: 0.5 µg/mL (≈ 2.67 µM)
M. scrofulaceum
  MIC: 8 µg/mL (≈ 42.7 µM)
[1]
  Anti-Fungal Activity (MIC): 8 µg/mL
M. avium
  MIC: 4 µg/mL (≈ 21.4 µM)
M. tuberculosis 210
  MIC: 1 µg/mL (≈ 5.34 µM)
M. cansassi
  MIC: 1 µg/mL (≈ 5.34 µM)
[2]
  Anti-Fungal Activity (MIC): 8 µg/mL
M. fortuitum
  MIC: 4 µg/mL (≈ 21.4 µM)
M. tuberculosis P
  MIC: 2 µg/mL (≈ 10.7 µM)
Candida dlabrata 250^mdr
  Anti-Fungal Activity (MIC): 4** μg/mL
Candida crusei 6258^mdr
  Anti-Fungal Activity (MIC): 4 µg/mL
[3]
  growth inhibitory activity in infected macrophages: comparabale with the inhibition observed for Rifampicin
M. tuberculosis W
  MIC: 1 µg/mL (≈ 5.34 µM)
[4]
  toxicity in treated mice: no toxicity was observed
M. intracellularie
  MIC: 4 µg/mL (≈ 21.4 µM)
[5]
  Anti-Fungal Activity (MIC): 8 µg/mL
M. tuberculosis CDC1551
  MIC: 2 µg/mL (≈ 10.7 µM)
M. tuberculosis H37Rv
  MIC: 1 µg/mL (≈ 5.34 µM)
M. tuberculosis W4
  MIC: 1 µg/mL (≈ 5.34 µM)
Candida albicans 90028
  Anti-Fungal Activity (MIC): 8 µg/mL
[6]
  cytotoxicity in infected macrophages: low cytotoxicity, similar to Rifampicin
Mycobacteria
  activity against Mycobacteria (in words): highest activity
[7]
  Anti-Fungal Activity (MIC): 4 µg/mL
Virus (92TH594); Tables 5 and 6 compared
  difference in antiviral activity with and without preincubation prior to viral infection: no detectable difference
Virus (92TH594); compound 2.5 μg/ml, added to the cells after viral infection
  P24 values: 975 pg/mL
Virus (92TH594); compound 2.5 μg/ml, added to the cells before viral infection
  P24 values: 960 pg/mL
Virus (92TH594); compound 10 μg/ml, added to the cells after viral infection
  P24 values: 7 pg/mL
Virus (92TH594); compound 10 μg/ml, added to the cells before viral infection
  P24 values: 6 pg/mL
[8]
  Anti-Fungal Activity (MIC): <1 µg/mL
[9]
  Anti-Fungal Activity (MIC): 8 µg/mL
Candida albicans 90030
  Anti-Fungal Activity (MIC): 4 µg/mL
[10]
  effect on growth of THP1 cells: not able to affect the growth of THP1 cells
M. tuberculosis AB
  MIC: 2 µg/mL (≈ 10.7 µM)
